The source of these data is patent US20050004124A1, “THERAPIES RELATING TO COMBINATIONS OF ALDOSE REDUCTASE INHIBITORS AND CYCLOOXYGENASE-2 INHIBITORS” (priority 2001, published 2005).

Compound `O=c1ccc(S(=O)(=O)c2oc3ccccc3c2O)n[nH]1` [Example 16, 6-(3-Hydroxy-benzofuran-2-sulfonyl)-2H-pyridazin-3-one] yielded a melting point of 186 to 189 °C.
Turning to `O=c1ccc(S(=O)(=O)c2[nH]c3ccccc3c2Cl)n[nH]1` [Example 36, 6-(3-Chloro-indole-2-sulfonyl)-2H-pyridazin-3-one], the melting point is 250 °C.
`Cn1c(S(=O)(=O)c2ccc(=O)[nH]n2)cc2ccccc21` [Example 40, 6-(N-Methylindole-2-sulfonyl)-2H-pyridazin-3-one] had a melting point of 233 to 235 °C.
